Earlier results on 10 compounds are cited in publication PMC12114947, “Evaluation of Violacein Metabolic Stability and Metabolite Identification in Human, Mouse, and Rat Liver Microsomes” (Pharmaceutics, 2025).

Structures are written as SMILES. Where two headings read alike, the source gives them in different places.

The conditions of data set [1]: cited from earlier work.
For data set [2] the following is noted: cited from earlier work. This is another data set of the same source.
On the set-up of data set [3]: method as in PMID 38399311. Conditions: liver microsomes, rats; cited from earlier work.
Details of data set [4]: method as in PMID 38399311. Conditions: liver microsomes, mice; cited from earlier work. (Liver microsomes are vesicles of endoplasmic reticulum, rich in cytochrome P450 enzymes.)
On the set-up of data set [5]: method as in PMID 38399311. Conditions: liver microsomes, humans; cited from earlier work.
The conditions of data set [6]: cited from earlier work. This is another data set of the same source.
The conditions of data set [7]: cited from earlier work. This is another data set of the same source.
Details of data set [8]: method as in PMID 9408857. Conditions: rats; cited from earlier work.
On the set-up of data set [9]: method as in PMID 9408857. Conditions: rabbits; cited from earlier work.
Details of data set [10]: method as in PMID 9408857. Particulars: dogs; cited from earlier work.
Details of data set [11]: method as in PMID 9408857. Particulars: humans; cited from earlier work.
On the set-up of data set [12]: method as in PMID 12920490, PMID 24002099, PMID 10445386. Particulars: based on the human hepatic microsomal pathway; cited from earlier work.
For data set [13] the following is noted: cited from earlier work. The source holds these as a separate data set.
For data set [14] the following is noted: cited from earlier work. This is another data set of the same source.

For the compound `Cc1ncc2n1-c1ccc(Cl)cc1C(c1ccccc1F)=NC2` [midazolam], the “CLint, in vivo” value in [1] (rat) was 79.2 mL/min/kg; in [2] (human), 6.67 mL/min/kg. Further, the t1/2 entry in [1] (rats) is “about 31 min”; in [2] (humans) it was 1.85 h.

Turning to `CCCC(NCC)C(=O)c1ccccc1` (stereo not shown) [N-ethyl pentedrone], the values for the t1/2 in data set [3], in data set [4] and in [5] were 0.202 h, 3.12 h and 12.8 h, respectively.

As to `OC(c1cc(C(F)(F)F)nc2c(C(F)(F)F)cccc12)C1CCCCN1` (stereo not shown) [mefloquine], the Clearance in data set [6] (in vivo) is 0.33 to 0.83 mL/min/kg.

In the case of `CCN(CC)CCCC(C)Nc1ccnc2cc(Cl)ccc12` (stereo not shown) [chloroquine], in data set [6], the Clearance is 1.5 to 1.7 mL/min/kg.

Consider `CCCCN(CCCC)CC(O)c1cc(Cl)cc2c1-c1ccc(Cl)cc1/C2=C/c1ccc(Cl)cc1` (stereo not shown) [lumefantrine], for which, in data set [7] (antimalarials), the t1/2 was 72 to 144 h.

Regarding `C[C@@H]1CC[C@H]2[C@@H](C)C(=O)O[C@@H]3O[C@@]4(C)CC[C@@H]1[C@]32OO4` [artemisinin], the t1/2 in data set [7] (in vivo) was 1 to 2 h.

As to `CNS(=O)(=O)Cc1ccc2[nH]cc(CCN(C)C)c2c1` [sumatriptan], the Clearance was 44.7 mL/min/kg in [8], 26 mL/min/kg in data set [9], 14 mL/min/kg in data set [10] and “approximately 1.10 L/h/kg” in [11].

Turning to `COc1cc(NC(C)CCCN)c2ncccc2c1` (stereo not shown) [primaquine], the “Estimated CLint, in vivo” value in data set [12] is “approximately 0.017 mL/min/kg”.

For `CO[C@H]1O[C@@H]2O[C@@]3(C)CC[C@H]4[C@H](C)CC[C@@H]([C@H]1C)[C@@]24OO3` [artemether], the Clearance in data set [6] (artemether alone) was 281.3 ± 67.3 mL/min/kg; in data set [6] (co-administered with pyronaridine), 466.7 ± 36 mL/min/kg.

For `NC(Cc1cc(I)c(Oc2cc(I)c(O)c(I)c2)c(I)c1)C(=O)O` (stereo not shown) [thyroxine], the “CLint, in vitro” value in data set [13] (rat 1) is 1.08 mL/min/10^6 cells; in data set [13] (rat 2), 0.75 mL/min/10^6 cells; in data set [14] (human donor 1364) it was 0.61 mL/min/10^6 cells; in data set [14] (human donor Hu1362) it was 0.56 mL/min/10^6 cells.
